In patent publication US20180187184A1, “NOVEL CONSTRUCTS AND SCREENING METHODS” (Systasy Bioscience GmbH, priority 2016, published 2018):
Like-named read-outs stand apart in the source and are kept apart here. Values belong to the molecule of their own block, whether it stands above or below them.

Tests used:
primary neurons = assay: Rotenone dose-response cell viability assay (nuclei count, genomic DNA and total RNA quantification); format: cell-based, mouse; settings: for IC50: Mus musculus, Primary neuron, 168 h
Procedure: Cells were incubated under appropriate culturing conditions until DIV14.
Cell nuclei were stained on DIV14 with Hoechst dye and evaluated with a Zeiss Observer Z1 microscope. Subsequently, the neuron cultures were lysed and gDNA as well as total RNA was isolated using the Qiagen AllPrep DNA/RNA Mini Kit. The gDNA and total RNA concentrations were determined using a UV spectrophotometer.
The present inventors first evaluated changes in the abundance of genomic DNA and total RNA in response to cytotoxic stress within a primary neuron population.

E-SARE sensor = assay: E-SARE luciferase activity in primary neurons upon stimulation; format: cell-based, mouse; settings: DIV14
Source text: For multiplate assays, cells were transfected (for cell lines) using Lipofectamine2000 (Invitrogen) according to the manufacturer's instructions or infected (for primary neurons) by an E-SARE-luciferase containing AAV with 500-1000 AAV GCs per cell.
The assay compares an unstimulated response with a stimulated response.
Finally, the E-SARE sensor not only responds to neuronal silencing (TTX/APV) and synaptic stimulation (BIC/4-AP), but can also be induced by brain-derived neurotrophic factor (BDNF) which is a well-established stimulus with functions in neuronal differentiation and plasticity (FIG. 6C) (Park H and Poo M. Nat Rev Neurosci. 2013 January; 14(1):7-23). The optimized and validated E-SARE sensor has been subsequently used for developing the pooled RNAi screen in primary neurons.

Molecule: C=C(C)[C@H]1Cc2c(ccc3c2O[C@@H]2COc4cc(OC)c(OC)cc4[C@@H]2C3=O)O1 [rotenone]
IC50 (primary neurons; read-out: IC50, genomic DNA content): 40 nM
IC50 (primary neurons; read-out: IC50, total RNA content): 15 nM
IC50 (primary neurons; read-out: IC50, viable cells (pyknotic nuclei filtered out)): 14 nM
reduction of genomic DNA content (primary neurons; rotenone concentrations above 100 nM, 7 days): ~40%

E-SARE sensor activity (E-SARE sensor): induced
B1: brain-derived neurotrophic factor (protein, UniProt P23560 19-247, looked up)
Neurotrophic factor BDNF …: APMKEANIRGQGGLAYPGVRTHGTLESVNGPKAGSRGLTSLADTFEHVIEELLDEDQKVRPNEENNKDADLYTSRVMLSSQVPLEPPLLFLLEEYKNYLDAANMSMRVRRHSDPARRGELSVCDSISEWVTAADKKTAVDMSGGTVTVLEKVPVSKGQLKQYFYETKCNPMGYTKEGCRGIDKRHWNSQCRTTQSYVRALTMDSKKRIGWRFIRIDTSCVCTLTIKRGR
notes: well-established stimulus with functions in neuronal differentiation and plasticity
